Experimental data as given in patent publication US7307084B2, “Cyclic benzimidazoles” (Altana Pharma AG, priority 2003, dated 2007).

Experiments:
[1] = system: pentagastrin-stimulated acid secretion of the perfused rat stomach; assay: Testing of the secretion-inhibiting action on the perfused rat stomach; conditions: dose 1 μmol/kg i.d. (intraduodenal), perfused stomach of anesthetized female CD rat, in vivo
Excerpt: In Table A which follows, the influence of the compounds according to the invention on the pentagastrin-stimulated acid secretion of the perfused rat stomach after intraduodenal administration in vivo is shown.
The abdomen of anesthetized rats (CD rat, rat, female, 200-250 g; 1.5 g/kg l.m. urethane) was opened after trachetomy by a median upper abdominal incision and a PVC catheter was fixed transorally in the esophagus and another via the pylorus such that the ends of the tubes just projected into the gastric lumen. The catheter leading from the pylorus led outward into the right abdominal wall through a side opening.
After thorough rinsing (about 50-100 ml), warm (37° C.) physiological NaCl solution was continuously passed through the stomach (0.5 ml/min, pH 6.8-6.9; Braun-Unita 1). The pH (pH meter 632, glass electrode EA 147; φ=5 mm, Metrohm) and, by titration with a freshly prepared 0.01N NaOH solution to pH 7 (Dosimat 665 Metrohm), the secreted HCl were determined in the effluent in each case collected at an interval of 15 minutes.
The gastric secretion was stimulated by continuous infusion of 1 μg/kg (=1.65 ml/h) of i.v. pentagastrin (left femoral vein) about 30 min after the end of the operation (i.e. after determination of 2 preliminary fractions). The substances to be tested were administered intraduodenally in a 2.5 ml/kg liquid volume 60 min after the start of the continuous pentagastrin infusion.
The body temperature of the animals was kept at a constant 37.9-38° C. by infrared irradiation and heat pads (automatic, stepless control by means of a rectal temperature sensor).

Compound	melting point [°C]	Inhibition of acid secretion [1] [%]
Cc1nc2c3c(c(CO)cc2n1C)CCC(c1ccccc1)N3 (centres unmarked) [Example 31, 5-Hydroxymethyl-2,3-dimethyl-8-phenyl-6,7,8,9tetrahydro-3H-imidazo[4,5-h]quinoline]	253 to 254	
Cc1nc2c3c(c(C(=O)N4CCC4)cc2n1C)CCC(c1ccccc1)O3 (centres unmarked) [Example 18, 1-Azetidin-1-yl-1-(2,3-dimethyl-8-phenyl-3,6,7,8-tetrahydro-chromeno[7,8-d]imidazol-5-yl)-methanone]		>50
Cc1nc2c3c(c(C(=O)N(C)C)cc2n1C)CCC(c1ccccc1)N3 (centres unmarked) [Example 2, 2,3-Dimethyl-8-phenyl-6,7,8,9-tetrahydro-3H-imidazo[4,5-h]quinoline-5-carboxylic Acid Dimethylamide]	167 to 170	>50
CC(C)c1nc2c3c(c(C(=O)N(C)C)cc2n1C)CCC(c1ccccc1)O3 (centres unmarked) [Example 9, 2-Isopropyl-3-methyl-8-phenyl-3,6,7,8-tetrahydro-chromeno[7,8-d]imidazole-5-carboxylic Acid Dimethylamide]	179 to 180	
Cc1nc2c3c(ccc2n1C)CCC(c1ccccc1)O3 (centres unmarked) [Example 36, 2,3-Dimethyl-8-phenyl-3,6,7,8-tetrahydro-chromeno[7,8-d]imidazole]	161 to 164	
CCCNC(=O)c1cc2c(nc(C)n2C)c2c1CCC(c1ccccc1)O2 (centres unmarked) [Example 19, 2,3Dimethyl-8-phenyl-3,6,7,8-tetrahydro-chromeno[7,8-d]imidazole-5-carboxylic Acid Propyl-amide]	273	
CNC(=O)c1cc2c(nc(C)n2C)c2c1CCC(c1ccccc1)N2 (centres unmarked) [Example 29, 2,3-Dimethyl-8-phenyl-6,7,8,9-tetrahydro-3H-imidazo[4,5-h]quinoline-5-carboxylic Acid Methylamide]	259	>50
CN(C)C(=O)c1cc2c(nc(C3CC3)n2C)c2c1CCC(c1ccccc1)O2 (centres unmarked) [Example 10, 2-Cyclopropyl-3-methyl-8-phenyl-3,6,7,8-tetrahydro-chromeno[7,8-d]imidazole-5-carboxylic Acid Dimethylamide]	176 to 179	>50
Cc1nc2c3c(c(CO)cc2n1C)CCC(c1ccccc1)O3 (centres unmarked) [Example 17, (2,3-Dimethyl-8-phenyl-3,6,7,8-tetrahydro-chromeno[7,8-d]imidazol-5-yl)methanol]	279 to 281	
Cc1nc2c3c(c(C(=O)NCCO)cc2n1C)CCC(c1ccccc1)O3 (centres unmarked) [Example 5, 2,3 Dimethyl-8-phenyl-3,6,7,8-tetrahydro-chromeno[7,8-d]imidazole-5-carboxylic Acid (2-Hydroxy-ethyl)-amide]	228 to 229	
Cc1nc2c3c(c(C(N)=O)cc2n1C)CCC(c1ccccc1)O3 (centres unmarked) [Example 3, 2,3-Dimethyl-8-phenyl-3,6,7,8tetrahydro-chromeno[7,8-d]imidazole-5-carboxylic Acid Amide]	264 to 267	
CCc1nc2c3c(c(C(=O)N(C)C)c(-c4ccccc4)c2n1C)CCCO3 [Example 24, 2-Ethyl-3-methyl-4-phenyl-3,6,7,8-tetrahydro-chromeno[7,8-d]imidazole-5-carboxylic Acid Dimethylamide]	195 to 197	
Cc1nc2c3c(c(C(=O)NCC(O)CO)cc2n1C)CCC(c1ccccc1)O3 (centres unmarked) [Example 21, 2,3-Dimethyl-8-phenyl-3,6,7,8tetrahydro-chromeno[7,8-d]imidazole-5-carboxylic Acid (2,3-Dihydroxy-propyl)amide]	268 to 270	
Cc1nc2c3c(c(C(=O)N(C)C)cc2n1C)CC[C@@H](c1ccccc1)O3 [33 (8S), (8S)-2,3-Dimethyl-8-phenyl-3,6,7,8-tetrahydro-chromeno[7,8-d]imidazole-5-carboxylic Acid Dimethylamide]		>50
COCc1cc2c(nc(C)n2C)c2c1CCC(c1ccccc1)O2.O=C(O)C(=O)O (centres unmarked) [Example 11, 5-Methoxymethyl-2,3-dimethyl-8-phenyl-3,6,7,8-tetrahydro-chromeno[7,8-d]imidazole Oxalic Acid]	204 to 205	
Cc1nc2c3c(c(C(N)=O)cc2n1C)CCC(c1ccccc1)N3 (centres unmarked) [Example 28, 2,3-Dimethyl-8-phenyl-6,7,8,9-tetrahydro-3H-imidazo[4,5-h]quinoline-5-carboxylic Acid Amide]	311 to 319	

Compound	melting point [°C]	Inhibition of acid secretion [1] [%]
Cc1nc2c3c(c(C(=O)N4CCOCC4)cc2n1C)CCC(c1ccccc1)O3 (centres unmarked) [Example 7, 1-(2,3-Dimethyl-8-phenyl-3,6,7,8-tetrahydro-chromeno[7,8-d]imidazol-5-yl)-1-morpholin-4-yl-methanone]	291 to 293	
CNC(=O)c1cc2c(nc(C)n2C)c2c1CCC(c1ccccc1)O2 (centres unmarked) [Example 4, 2,3-Dimethyl-8-phenyl-4,6,7,8-tetrahydro-chromeno[7,8-d] imidazole-5-carboxylic Acid Methylamide]		>50
CC(=O)N(C)c1cc2c(nc(C)n2C)c2c1CCC(c1ccccc1)O2 (centres unmarked) [Example 23, N-(2,3-Dimethyl-8-phenyl-3,6,7,8-tetrahydro-chromeno[7,8-d]imidazol-5-yl)-N-methyl-acetamide]	214 to 216	
COCCOCc1cc2c(nc(C)n2C)c2c1CCC(c1ccccc1)O2.O=C(O)C(=O)O (centres unmarked) [Example 12, 5-(2-Methoxy-ethoxymethyl)-2,3-dimethyl-8-phenyl-3,6,7,8-tetrahydro-chromeno[7,8-d]-imidazole Oxalic Acid]	131 to 133	
Cc1nc2c3c(c(C(=O)O)cc2n1C)CCC(c1ccccc1)N3 (centres unmarked) [Example 26, 2,3-Dimethyl-8-phenyl-6,7,8,9-tetrahydro-3H-imidazo[4,5-h]quinoline-5-carboxylic Acid]	325 to 326	
COCn1c(C)nc2c3c(c(C(=O)N(C)C)cc21)CCC(c1ccccc1)O3 (centres unmarked) [Example 22, 3Methoxymethyl-2-methyl-8-phenyl-3,6,7,8-tetrahydro-chromeno[7,8-d]imidazole-5-carboxylic Acid Dimethylamide]	213 to 215	
Cc1nc2c3c(c(C(=O)O)cc2n1C)CCC(c1ccccc1)O3 (centres unmarked) [Example 16, 2,3-Dimethyl-8-phenyl-3,6,7,8-tetrahydro-chromeno[7,8-d]imidazole-5-carboxylic Acid]	323 to 326	
Cc1nc2c3c(c(C(=O)NC4CC4)cc2n1C)CCC(c1ccccc1)O3 (centres unmarked) [Example 35, 2,3-Dimethyl-8-phenyl-3,6,7,8-tetrahydro-chromeno[7,8-d]imidazole-5-carboxylic Acid Cyclopropylamide]	312 to 313	
CCOC(=O)c1cc2c(nc(C)n2C)c2c1CCC(c1ccccc1)O2 (centres unmarked) [Example 15, 2,3-Dimethyl-8-phenyl-3,6,7,8-tetrahydro-chromeno[7,8-d]imidazole-5-carboxylic Acid Ethyl Ester]	172 to 173	
Cc1nc2c3c(c(C(=O)N(C)C)cc2n1C)CCC(c1ccccc1)O3 (centres unmarked) [Example 1, 2,3-Dimethyl-phenyl-3,6,7,8-tetrahydro-chromeno[7,8-a]imidazole-5-carboxylic Acid Dimethylamide]		>50
Cc1nc2c3c(c(C(=O)N4CC4)cc2n1C)CCC(c1ccccc1)O3 (centres unmarked) [Example 13, 1-Aziridin-1-yl-(2,3-dimethyl-8-phenyl-3,6,7,8-tetrahydro-chromeno[7,8-d]imidazol-5-yl)-methanone]	201 to 204	
CNC(=O)c1cc2c(nc(C)n2C)c2c1CC[C@@H](c1ccccc1)N2 [32 (8S), (8S)-2,3-dimethyl-8-phenyl-6,7,8,9-tetrahydro-3H-imidazo[4,5-h]quinoline-5-carboxylic acid methylamide]		>50
CN(C)C(=O)c1cc2c(nc(C(F)(F)F)n2C)c2c1CCC(c1ccccc1)O2 (centres unmarked) [Example 14, 3-Methyl-8-phenyl-2-trifluoromethyl-3,6,7,8-tetrahydro-chromeno[7,8-d]imidazole-5-carboxylic Acid Dimethylamide]	223 to 225	
COCCNC(=O)c1cc2c(nc(C)n2C)c2c1CCC(c1ccccc1)O2 (centres unmarked) [Example 6, 2,3-Dimethyl-8-phenyl-3,6,7,8-tetrahydro-chromeno[7,8-d]imidazole-5-carboxylic Acid (2-Methoxy-ethyl)amide]	254 to 256	
CCOC(=O)c1cc2c(nc(C)n2C)c2c1CCC(c1ccccc1)N2 (centres unmarked) [Example 25, Ethyl 2,3-dimethyl-8-phenyl-6,7,8,9-tetrahydro-3H-imidazo[4,5-h]quinoline-5-carboxylate]	185 to 186	
Cc1nc2c3c(c(C(=O)NN4CC4)cc2n1C)CCC(c1ccccc1)N3 (centres unmarked)	192 to 193	
